The results in this text go back to ChEMBL document CHEMBL1151281, “Botcinins A, B, C, and D, metabolites produced by Botrytis cinerea, and their antifungal activity against Magnaporthe grisea, a pathogen of rice blast disease” (2005).

Broadly, the MIC is the smallest concentration in the dilution series that meets the test's criterion for growth inhibition. Read a low MIC as greater potency.

Converted amounts (≈) assume the structure as drawn. The source made the active and inactive calls.

One assay relates to Pyricularia grisea. Nature of the assay: Antifungal activity against Magnaporthe grisea IFO 30733 after 3 days. The assay is classed as functional. The note with it: IFO 30733, 72 h.
In turn, `CCCCCC[C@H](O)/C=C/C(=O)O[C@@H]1[C@@H](C)[C@@H]2OC(=O)[C@H](C)[C@H](OC(C)=O)[C@@]2(C)O[C@H]1C` [BOTCININ B] gave an MIC of 12.5 µM (≈ 5.68 µg/mL). Still for that read-out and setting: then `CCCC[C@H](O)CCC(=O)O[C@@H]1[C@@H](C)[C@@H]2OC(=O)[C@H](C)[C@H](OC(C)=O)[C@@]2(C)O[C@H]1C`, with 100 µM (≈ 42.9 µg/mL); and `CCCCCC[C@H](O)/C=C/C(=O)O[C@@H]1[C@@H](C)[C@@H]2OC(=O)[C@@H](C)[C@H](OC(C)=O)[C@@]2(C)O[C@H]1C` [BOTCININ C], with 100 µM (≈ 45.5 µg/mL). Still for that read-out and setting: to `CCCC[C@H](O)/C=C/C(=O)O[C@@H]1[C@@H](C)[C@@H]2OC(=O)C(C)=C[C@@]2(C)O[C@H]1C` [BOTCININ D] belongs 12.5 µM (≈ 4.58 µg/mL); to `CCCC[C@H](O)/C=C/C(=O)O[C@@H]1[C@@H](C)[C@@H]2OC(=O)[C@H](C)[C@H](OC(C)=O)[C@@]2(C)O[C@H]1C` [BOTCININ A], 100 µM (≈ 42.7 µg/mL).

The test system of another assay is Pyricularia grisea. Nature of the assay: Antifungal activity against Magnaporthe grisea IFO 30733 at 800 uM after 3 days.
Settings: not given
The assay is classed as functional, organism-based.
Regarding `CC(=O)O[C@H]1[C@@H](C)C(=O)O[C@H]2[C@H](C)[C@@H](O)[C@H](C)O[C@@]21C`, the outcome was inactive.
